According to patent US7759345B2, “Antitumoral derivatives of ET-743” (priority 2001, dated 2010):

How the values were obtained:
[1] = system: LoVo; experiment: Inhibition of cells growth by colorimetric assay (SRB), LoVo; assay type: cell-based; details: SRB, 48 hours exposure
Summary of the method: (§1)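 SRB read-out at 490 nm after 48 h drug exposure (10 to 10^−8 μg/ml) of cells plated at 5×10^3/well and attached 18 h in drug-free RPMI 1640/10% FBS. Triplicate means give GI, TGI (cytostatic) and LC (cytotoxic).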

[2] = system: HT-29; experiment: Inhibition of cells growth by colorimetric assay (SRB), HT-29; assay type: cell-based; details: SRB, 48 hours exposure
Summary of the method: as §1

[3] = system: A-549; experiment: Inhibition of cells growth by colorimetric assay (SRB), A-549; assay type: cell-based; details: SRB, 48 hours exposure
Summary of the method: as §1

[4] = system: IGROV-ET; experiment: Inhibition of cells growth by colorimetric assay (SRB), IGROV-ET; assay type: cell-based; details: SRB, 48 hours exposure
Summary of the method: as §1

[5] = system: SK-MEL-28; experiment: Inhibition of cells growth by colorimetric assay (SRB), SK-MEL-28; assay type: cell-based; details: SRB, 48 hours exposure
Summary of the method: as §1

[6] = system: Skeletal
Source text: (§2) Toxicity was asssessed by the methods reported in Toxicology in Vitro, 15 (2001) 571-577, J. Luber Narod et al.: “Evaluation of the use of in vitro methodolodies as tools for screening new compounds for potential in vivo toxicity”.

[7] = system: Heart
Source text: as §2

[8] = system: LNCaP; experiment: Inhibition of cells growth by colorimetric assay (SRB), LNCaP; assay type: cell-based; details: SRB, 48 hours exposure
Summary of the method: as §1

[9] = system: HMEC1; experiment: Inhibition of cells growth by colorimetric assay (SRB), HMEC1; assay type: cell-based; details: SRB, 48 hours exposure
Summary of the method: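 Compound in DMSO/EtOH/PBS vehicle was applied at 10 to 10^−8 μg/ml to attached cells (5×10^3/well, 18 h) for 48 h. Cells were then fixed with cold TCA and stained with 0.4% SRB in 1% acetic acid.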

[10] = system: LoVo-Dox; experiment: Inhibition of cells growth by colorimetric assay (SRB), LoVo-Dox; assay type: cell-based; details: SRB, 48 hours exposure
Summary of the method: as §1

[11] = system: SK-BR-3; experiment: Inhibition of cells growth by colorimetric assay (SRB), SK-BR-3; assay type: cell-based; details: SRB, 48 hours exposure
Summary of the method: as §1

[12] = system: SK-OV-3; experiment: Inhibition of cells growth by colorimetric assay (SRB), SK-OV-3; assay type: cell-based; details: SRB, 48 hours exposure
Summary of the method: as §1

[13] = system: PANC-1; experiment: Inhibition of cells growth by colorimetric assay (SRB), PANC-1; assay type: cell-based; details: SRB, 48 hours exposure
Summary of the method: as §1

[14] = system: Myelo
Source text: as §2

[15] = system: DU-145; experiment: Inhibition of cells growth by colorimetric assay (SRB), DU-145; assay type: cell-based; details: SRB, 48 hours exposure
Summary of the method: as §1

[16] = system: Kidney
Source text: as §2

[17] = system: IGROV-1; experiment: Inhibition of cells growth by colorimetric assay (SRB), IGROV-1; assay type: cell-based; details: SRB, 48 hours exposure
Summary of the method: as §1

[18] = system: Liver
Source text: as §2

[19] = system: K-562; experiment: Inhibition of cells growth by colorimetric assay (SRB), K-562; assay type: cell-based; details: SRB, 48 hours exposure
Summary of the method: as §1

COC1=C(C)C(=O)C2=C(C1=O)[C@@H]1C3[C@@H]4SC[C@]5(NCCc6cc(O)c(OC)cc65)C(=O)OC[C@@H](c5c6c(c(C)c(OC(C)=O)c54)OCO6)N3[C@@H](O)[C@H](C2)N1C (some centres unmarked) [Compound 101] was tested, and the GI50 ([1]; Homo sapiens, LoVo, 48 h, LOVO, read-out: LOVO GI50) was 13.4 nM, the LC50 (concentration for 50% cell killing) ([1]; Homo sapiens, LoVo, 48 h, read-out: LOVO LC50, LOVO) was 219 nM and the “LOVO TGI” value ([1]; LOVO) was 4.68E-08. The “HT-29 TGI” value ([2]; HT-29) was 1.03E-08, the GI50 ([2]; Homo sapiens, HT-29, 48 h, HT-29, read-out: HT-29 GI50) was 3.57 nM and the LC50 (concentration for 50% cell killing) ([2]; Homo sapiens, HT-29, 48 h, read-out: HT-29 LC50, HT-29) was 12900 nM. For the same compound, the “A-549 TGI” value ([3]; A-549) was 6.52E-09, the GI50 ([3]; Homo sapiens, A549, 48 h, A-549, read-out: A-549 GI50) was 3.69 nM and the LC50 (concentration for 50% cell killing) ([3]; Homo sapiens, A549, 48 h, read-out: A-549 LC50, A-549) was 11.5 nM. For the same compound, the GI50 ([4]; Homo sapiens, 48 h, IGROV-ET, read-out: IGROV-ET GI50) was 30.5 nM, the CC50 ([4]; Homo sapiens, 48 h, read-out: IGROV-ET LC50, IGROV-ET) was 246 nM and the “IGROV-ET TGI” value ([4]; IGROV-ET) was 6.88E-08. For the same compound, the GI50 ([5]; Homo sapiens, SK-MEL-28, 48 h, MEL-28, read-out: MEL-28 GI50) was 3.35 nM, the CC50 ([5]; Homo sapiens, SK-MEL-28, 48 h, read-out: MEL-28 LC50, MEL-28) was 26 nM and the “MEL-28 TGI” value ([5]; MEL-28) was 7.02E-09. The “Toxicity Data Skeletal” value [6] was 3.40E-09, the “Toxicity Data Heart” value [7] was 7.67E-08 and the GI50 ([8]; Homo sapiens, LNCaP, 48 h, read-out: LNCAP GI50, LNCAP) was 2.5 nM. The CC50 ([8]; Homo sapiens, LNCaP, 48 h, read-out: LNCAP LC50, LNCAP) was 7.71 nM, the “LNCAP TGI” value ([8]; LNCAP) was 4.40E-09 and the “HMEC-1 TGI” value ([9]; HMEC-1) was 1.17E-08. For the same compound, the GI50 ([9]; Homo sapiens, HMEC-1, 48 h, HMEC-1, read-out: HMEC-1 GI50) was 3.05 nM, the LC50 ([9]; Homo sapiens, HMEC-1, 48 h, read-out: HMEC-1 LC50, HMEC-1) was 12900 nM and the GI50 ([10]; Homo sapiens, 48 h, LOVO-DOX, read-out: LOVO-DOX GI50) was 251 nM. For the same compound, the CC50 ([10]; Homo sapiens, 48 h, read-out: LOVO-DOX LC50, LOVO-DOX) was 12900 nM, the “LOVO-DOX TGI” value ([10]; LOVO-DOX) was 9.29E-07 and the GI50 ([11]; Homo sapiens, SK-BR-3, 48 h, SK-BR3, read-out: SK-BR3 GI50) was 2.63 nM. For the same compound, the CC50 ([11]; Homo sapiens, SK-BR-3, 48 h, read-out: SK-BR3 LC50, SK-BR3) was 46.8 nM, the “SK-BR3 TGI” value ([11]; SK-BR3) was 6.44E-09 and the GI50 ([12]; Homo sapiens, SK-OV-3, 48 h, SK-OV3, read-out: SK-OV3 GI50) was 4.49 nM. For the same compound, the LC50 ([12]; Homo sapiens, SK-OV-3, 48 h, read-out: SK-OV3 LC50, SK-OV3) was 12900 nM, the “SK-OV3 TGI” value ([12]; SK-OV3) was 9.77E-09 and the GI50 ([13]; Homo sapiens, PANC-1, 48 h, PANC-1, read-out: PANC-1 GI50) was 5.66 nM. For the same compound, the LC50 (concentration for 50% net cell kill) ([13]; Homo sapiens, PANC-1, 48 h, read-out: PANC-1 LC50, PANC-1) was 1340 nM, the “PANC-1 TGI” value ([13]; PANC-1) was 2.27E-08 and the “Toxicity Data Myelo” value [14] was 1.96E-08. For the same compound, the “DU-145 TGI” value ([15]; DU-145) was 7.46E-09, the GI50 ([15]; Homo sapiens, DU-145, 48 h, DU-145, read-out: DU-145 GI50) was 3.74 nM and the CC50 ([15]; Homo sapiens, DU-145, 48 h, read-out: DU-145 LC50, DU-145) was 17.9 nM. For the same compound, the “Toxicity Data Kidney” value [16] was 3.17E-08, the GI50 ([17]; Homo sapiens, IGROV-1, 48 h, IGROV, read-out: IGROV GI50) was 2.5 nM and the CC50 ([17]; Homo sapiens, IGROV-1, 48 h, read-out: IGROV LC50, IGROV) was 10.7 nM. The “IGROV TGI” value ([17]; IGROV) was 5.17E-09, the “Toxicity Data Liver” value [18] was 5.40E-08 and the GI50 ([19]; Homo sapiens, K562, 48 h, K-562, read-out: K-562 GI50) was 0.25 nM. The LC50 (50% cell killing) ([19]; Homo sapiens, K562, 48 h, read-out: K-562 LC50, K-562) was 19.2 nM and the “K-562 TGI” value ([19]; K-562) was 6.20E-10.
